{
  "source": "patent US20080153738A1",
  "about": "“COMPOSITIONS AND METHODS FOR TREATMENT OF HYPERPLASIA” (priority 1997, published 2008)",
  "origin": "cited, not measured here",
  "test_system": "in-stent restenosis in porcine coronary arteries",
  "data": [
    {"smiles": "CC(=O)O[C@H]1C(=O)[C@@]2(C)[C@H]([C@H](OC(=O)c3ccccc3)[C@]3(O)C[C@H](OC(=O)[C@H](O)[C@@H](NC(=O)c4ccccc4)c4ccccc4)C(C)=C1C3(C)C)[C@]1(OC(C)=O)CO[C@@H]1C[C@@H]2O", "note": "[paclitaxel, Paclitaxel]", "values": [
      {"measurement": "neointimal area", "setting": "90 μg paclitaxel stents", "result": "significant reduction in neointimal area"},
      {"measurement": "Lumen area", "setting": "15 and 90 μg paclitaxel stents, directly applied without polymer", "result": "Lumen area was increased"},
      {"measurement": "local cytotoxic effects", "setting": "stents coated with 90 μg of paclitaxel", "result": "significant local cytotoxic effects were observed"},
      {"measurement": "diameter stenosis and neointimal area", "setting": "stents coated with biodegradable polymer, slow-release paclitaxel 175-200 μg/stent, 4 weeks", "result": "reduction in diameter stenosis and neointimal area"}
    ]}
  ]
}
